# Measured values: patent publication US9464093B2, “Substituted imidazo[4',5':4,5]cyclopenta[1,2-e]pyrrolo[1,2-a]pyrazines and oxazolo[4',5':4,5]cyclopenta[1,2-e]pyrrolo[1,2-a]pyrazines for treating brain cancer” (Mayo Foundation for Medical Education and Research, priority 2012, dated 2016)
# Entries after “also recorded” stand apart in the source; their conditions may differ. Where two headings read alike, the source gives them in different places.
# What was measured:
# OCI-LY10 = experiment: Cell proliferation assay OCI-LY10 (Example 6); type: cell-based; settings: cells counted on the sixth day
# Protocol: (§1) In-vitro assays were performed to assess the cytotoxic impact of AA analogues on breast cancer cell lines (MB-468, MB-453, and T47D), lymphoma cell lines (Raji and OCI-LY10), and glioblastoma multiforme cell line (U87). The three breast cancer cell lines represent three subtypes of breast cancer: triple-negative (MB-468), Her2-positive (MB-453), and hormone receptor positive (T47D).
# (§2) The IC50 values obtained for each compound represents the concentration of the tested compound that is needed to decrease the cancer cell count by 50%. Cancer cells were seeded in triplicate at 50,000 cells per well of a 24-well plate in 0.5 ml medium. […] Cells were harvested and counted on the sixth day using a Beckman Coulter counter.
# NFkB signaling = experiment: NFkB reporter assay in Raji cells; type: cell-based; settings: 100 nM and 500 nM for 48 hours
# Description: 10^5 Raji cells were co-transfected overnight with a Cignal firefly luciferase-expressing NFkB reporter plasmid (NFkBr; SA Biosciences) together with a constitutively expressed Renilla luciferase reporter plasmid containing a CMV promoter. A promoterless vector (Neg-Luc) was co-transfected with the Renilla reporter for control. […] Data are presented as a ratio of firefly-to-Renilla luciferase luminescence.
# osteopontin = experiment: Osteopontin secretion ELISA in Raji cells; type: cell-based, human; settings: culture medium, four days
# Protocol: 10^5 Raji lymphoma cells were seeded in 5 ml media in 6-well plates in triplicate and were grown for four days. Cells were pelleted and the media was collected for analysis. Duplicate four hundred microliters of media supernatant were assayed for osteopontin by ELISA using Quantikine human osteopontin ELISA kit (R&D Systems, Inc., Minneapolis, Minn.). Statistical analysis was performed using two-tailed Student's T-Test.
# U87 cells = experiment: U87 orthotopic murine model for glioblastoma multiforme; type: in vivo; settings: for Median Survival (Day) GBM (U-87): control 25.5; for survival (Kaplan-Meier) vs control, U87 model / tumor growth (BLI) vs control, U87 model: all treatment groups (2.5 or 5 mg/kg i.p. daily for 4 days); for tolerability, U87 model: both dose levels (2.5 and 5 mg/kg)
# Protocol: Female athymic mice (8-10 weeks old and weighing 20-25 g at the beginning of the study) were purchased from Harlan laboratories (Indianapolis, Ind.). They were housed in a temperature-controlled sterilized room (23±2° C.) with a 12-h light/dark cycle and free access to food and water throughout the study.
# Murine brain tumor models were created by intracerebral injection of luciferase-transfected cancer cells in athymic mice under anesthesia using a stereotactic platform. For murine model for CNS lymphoma, 1×10^5 OCI-LY10 B lymphoma cells were used. For murine model for metastatic breast cancer of the brain (MBCB), 1×10^5 MB-468 triple-negative breast cancer cells were used. For murine model for glioblastoma multiforme (GBM), 1.75×10^5 U87 cells were used. Eight-week-old athymic mice underwent a minimum 7-day acclimation/quarantine prior to surgery. Surgery was performed in a laminar flow hood under sterile conditions. Tylenol 300 mg/kg PO was given for analgesia 48 hours before the surgery and continuing 48 hours postoperatively. Anesthesia was achieved by inhalation of 1-2% isoflurane. After the mouse became well anesthetized, it was placed in the Kopf stereotactic instrument. A small amount of BNP antibiotic cream (a mixture of Bacitracin, Neomycin and Polymyxin) was smeared on its eyes to prevent infection and corneal damage during surgery. A strip of soft fabric was placed over the mouse's body and tail to prevent excessive heat loss during surgery. The scalp area was cleaned with a 2% solution of Betadine and dried with cotton tipped applicator. A midline sagittal incision was made in the scalp. A small burr hole was drilled in the left skull with a surgical drill (Kopf) or a Dremel drill according to the coordinates (AP: 0.5 mm, LM: 2.5 mm) as determined by reference to the mouse brain atlas by Franklin and Paxinos. The dura mater was surgically exposed, and a 10 μl Hamilton syringe with a 26S-gauge beveled needle was lowered into the left cerebral hemisphere up to a depth of 3 mm and 5 μl of tumor cells were slowly infused (0.5 μl/min). The needle was left in place for 5 minutes to prevent reflux and then was slowly removed. The skin was closed with wound clips. The mice recovered from anesthesia and surgery in a warm environment and were not returned to their cages until motor activity returned. Cages were placed on top of a heating pad to minimize the loss of body heat during the recovery. The mice were monitored post-operatively at least twice a day for 5 days or until recovery was complete.
# BLI was used to assess the impact of the treatments on the brain tumor growth. After intracerebral injection of cancer cells, all the mice were subjected to bioluminesence imaging (BLI) twice a week starting at day-4 post-intracerebral injection to monitor the real-time in vivo tumor growth. BLI was conducted using a Xenogen Lumina optical imaging system (Caliper Life Sciences, Hopkinton, Mass.). Mice were anesthetized with isofluorane before intraperitoneal injections of luciferin at a dose of 150 mg/kg, providing a saturating substrate concentration for luciferase enzyme. Peak luminescent signals were recorded 10 minutes after luciferin injection. Regions of interest encompassing the intracranial area of signal were defined using Living Image software (Xenogen, Alameda, Calif.), and the total photons/s/steradian/cm2 was recorded.
# Five mice each were assigned to one of seven treatment groups or one vehicle control group for all three brain tumor models. Mice in experimental groups received either 2.5 mg/kg or 5 mg/kg of AA, CEAA, or DCEAA by intraperitoneal route daily for 4 days. For CAA, only 2.5 mg/Kg by intraperitoneal route daily for 4 days was used. The control group received DMSO by intraperitoneal route for 4 days. The end point for the survival analysis was the development of limb paralysis. Animals were checked at least twice per day. Animals that reached the end point were sacrificed by CO2 anesthesia. […]
# U87 = experiment: Cell proliferation assay U87 (Example 6); type: cell-based; settings: cells counted on the sixth day
# Protocol: as §1, §2
# osteopontin mRNA = experiment: Osteopontin mRNA real-time PCR; type: cell-based; settings: at 12 h; normalized to GAPDH
# Protocol: B lymphoma cells were grown at 1×10^6 cells in complete media. Cells were harvested by centrifugation, and total RNA was extracted by Trizol and PureLink kit as described by the manufacturer (Invitrogen: Carlsbad, Calif.). Residual genomic DNA contamination was removed by DNA-Free kit (Applied Biosystems: Carlsbad, Calif.). Total RNA was converted to cDNA using the High Capacity Reverse Transciption kit (Applied Biosystems: Carlsbad, Calif.) and diluted to 4 ng/μl RNA with nuclease-free water.
# Ct values were determined by instrument software and relative osteopontin mRNA values were normalized to GAPDH. Significant difference of Ct values was determined using a two-tailed Student's T-test.
# [1] = test system: DU145 prostate cancer cells; experiment: Cytotoxicity, MTT method, DU145; settings: read-out: Cytotoxicity (IC50, μM) DU145
# Protocol: The cell suspension in the culture medium was plated into each well of 96-well plates (10,000 cells/well/100 μL). After 24 h, testing compounds were added, and then the plates were incubated for an additional 24 h in a humidified atmosphere of 5% CO2 at 37° C. […] The IC50 value was determined by linear interpolation from the growth inhibition curve.
# T47D = experiment: Cell proliferation assay T47D (Example 6); type: cell-based; settings: cells counted on the sixth day
# Protocol: as §1, §2
# Raji = experiment: Cell proliferation assay Raji (Example 6); type: cell-based; settings: cells counted on the sixth day
# Protocol: as §1, §2
# [2] = test system: Raji B cells (Burkitt's lymphoma cells); experiment: Cytotoxicity, cell count, Raji (Example 4); settings: read-out: Cytotoxicity (IC50, μM) Raji
# Protocol: Raji cells and MB-468 cells were purchased from American Tissue Culture (Manassas, Va.). […] Cells were harvested and counted on the third day in a Coulter Particle Counter (Beckman-Coulter Corp.: Brea, Calif.). IC50 values were calculated using GraphPad Prism 5 (GraphPad Software Inc., La Jolla, Calif.).
# MB-468 = experiment: Cell proliferation assay MB-468 (Example 6); type: cell-based; settings: cells counted on the sixth day
# Protocol: as §1, §2
# [3] = 2.5 mg/kg intraperitoneal daily for 4 days
# [4] = 5 mg/kg intraperitoneal daily for 4 days
structure (smiles),measurement,setting,value
"CN1C(=O)N[C@H]2[C@@H]3NC(=O)c4ccc(Br)n4[C@@H]3C[C@]21O [AA, agelastatin A, reference compound]",IC50,OCI-LY10,162 nM
same,NFkB signaling in Raji cells (reporter assay),NFkB signaling,significantly downregulated NFkB signaling; also recorded: attenuates the NFkB signaling
same,OPN secretion by Raji cells (ELISA),osteopontin,significantly decreased secretion of osteopontin; also recorded: decreases OPN secretion
same,Median Survival (Day) GBM (U-87),U87 cells; [3],28 days
same,"weight loss, U87 model",U87 cells; 5 mg/kg dose level,Some weight loss
same,Median Survival (Day) GBM (U-87),U87 cells; [4],30 days
same,"survival (Kaplan-Meier) vs control, U87 model",U87 cells,significantly prolonged survival; also recorded: prolongation of survival
same,"tumor growth (BLI) vs control, U87 model",U87 cells,significantly decreased tumor growth; also recorded: significantly slower
same,IC50,U87,2800 nM
same,expression of OPN messenger RNA (PCR),osteopontin mRNA,transcriptionally downregulating osteopontin; also recorded: decreases the expression of OPN messenger RNA
same,IC50,"[1]; MTT, 24 h incubation",2.3 µM
same,IC50,T47D,55.1 nM
same,IC50,Raji,137 nM
same,IC50,[2]; cells counted on the third day,0.14 µM
same,IC50,MB-468,2800 nM
"CN1C(=O)N[C@H]2[C@@H]3NC(=O)c4ccc(Cl)n4[C@@H]3C[C@]21O [CAA, chloroagelastatin A]",IC50,"OCI-LY10; Homo sapiens, OCI-Ly10",102 nM
same,"weight loss, U87 model",U87 cells; 2.5 mg/kg,Some weight loss
same,Median Survival (Day) GBM (U-87),U87 cells; [3],31 days
same,"survival (Kaplan-Meier) vs control, U87 model",U87 cells,significantly prolonged survival; also recorded: prolongation of survival
same,"tumor growth (BLI) vs control, U87 model",U87 cells,significantly decreased tumor growth; also recorded: significantly slower
same,IC50,"U87; Homo sapiens, U-87 MG",96.6 nM
same,IC50,"[1]; Homo sapiens, DU-145, 24 h",1.2 µM
same,IC50,"T47D; Homo sapiens, T47D",29.8 nM
same,IC50,"Raji; Homo sapiens, Raji",181 nM
same,IC50,"[2]; Homo sapiens, Raji",0.18 µM
same,IC50,MB-468,81.1 nM
"CCN1C(=O)N[C@H]2[C@@H]3NC(=O)c4ccc(Cl)n4[C@@H]3C[C@]21O [CEAA, chloroethylagelastatin A]",IC50,"OCI-LY10; Homo sapiens, OCI-Ly10",119 nM
same,Median Survival (Day) GBM (U-87),U87 cells; [3],29 days
same,Median Survival (Day) GBM (U-87),U87 cells; [4],31 days
same,"survival (Kaplan-Meier) vs control, U87 model",U87 cells,significantly prolonged survival; also recorded: prolongation of survival
same,"tumor growth (BLI) vs control, U87 model",U87 cells,significantly decreased tumor growth; also recorded: significantly slower
same,"tolerability, U87 model",U87 cells,well tolerated
same,IC50,"U87; Homo sapiens, U-87 MG",109 nM
same,IC50,"[1]; Homo sapiens, DU-145, 24 h",2.6 µM
same,IC50,"T47D; Homo sapiens, T47D",20.7 nM
same,IC50,"Raji; Homo sapiens, Raji",296 nM
same,IC50,"[2]; Homo sapiens, Raji",0.3 µM
same,IC50,MB-468,277 nM
"CCN1C(=O)N[C@H]2[C@@H]3NC(=O)c4cc(Cl)c(Cl)n4[C@@H]3C[C@]21O [DCEAA, dichloroethylagelastatin A]",IC50,"OCI-LY10; Homo sapiens, OCI-Ly10",429 nM
same,Median Survival (Day) GBM (U-87),U87 cells; [3],30 days
same,Median Survival (Day) GBM (U-87),U87 cells; [4],34 days
same,"survival (Kaplan-Meier) vs control, U87 model",U87 cells,significantly prolonged survival; also recorded: prolongation of survival
same,"tumor growth (BLI) vs control, U87 model",U87 cells,significantly decreased tumor growth; also recorded: significantly slower
same,"tolerability, U87 model",U87 cells,well tolerated
same,IC50,"U87; Homo sapiens, U-87 MG",256 nM
same,IC50,"[1]; Homo sapiens, DU-145, 24 h",1.4 µM
same,IC50,"T47D; Homo sapiens, T47D",101 nM
same,IC50,"Raji; Homo sapiens, Raji",619 nM
same,IC50,"[2]; Homo sapiens, Raji",0.62 µM
same,IC50,MB-468,444 nM
